Test results from patent US20260053811A1, “METHODS OF TREATING HYPERTENSION IN OBESE SUBJECTS” (Mineralys Therapeutics, Inc., priority 2022, published 2026).

System: hypertensive subjects
Assay: Seated automated office blood pressure (AOBP) in randomized, placebo-controlled, dose-ranging study
Type: in vivo, human
Details: Part 1
Experimental: A randomized, double-blinded, placebo-controlled, dose-ranging, multicenter study was conducted to evaluate the effect of orally administered Compound A HBr on blood pressure for the treatment of hypertension in male and female subjects ≥18 years of age.
The study consists of two parts. For enrollment into Part 1 of the study, a subject's value of plasma renin activity (PRA) must be ≤1 ng/mL/h based on morning measurement. If the value of PRA >1 ng/mL/h based on morning measurement, then subjects may be eligible to enter Part 2 of the study.
For Part 1, 163 enrolled subjects ≥18 years of age were randomized into 6 equal treatment groups (1:1:1:1:1:1) to 12.5 mg BID, 25 mg BID, 12.5 mg QD, 50 mg QD, 100 mg QD, or placebo. After a review of interim clinical data, the 2 lowest dose levels (12.5 mg QD and 12.5 mg BID) were stopped for future randomization due to a lack of consistent meaningful reduction of blood pressure, but the patients randomized to that point remained in the study through completion. Thus, after the review of interim clinical data, subjects were randomized into 4 equal treatment groups (1:1:1:1) to 25 mg BID, 50 mg QD, 100 mg QD, or placebo.
For Part 2, 36 enrolled subjects ≥18 years of age were randomized (5:1) to either 100 mg QD Compound A HBr or placebo such that the Compound A HBr treatment group consisted of approximately 30 subjects and the placebo treatment group will consist of approximately 6 subjects.
Subjects orally administered the assigned study drug (Compound A HBr or placebo) according to the assigned dosing regimen for 8 weeks beginning on Study Day 1. All subjects in Part 1 (regardless of dosing group) received BID dosing to preserve the integrity of the blind; active drug is administered as the morning dose for all QD dose groups. Subjects returned to the research facility or were seen by the clinical investigator or approved home health care professional at the end of Study Weeks 1, 2, 3, 4, 5, 6, 7, and 8 (±2 days) for protocol-defined efficacy and safety assessments and procedures, assessment of adverse events (AEs), and confirmation of compliance with study drug usage. Subjects also completed a telephone visit and blood pressure (BP) check at home approximately 3 days post last dose of study drug. Subjects attended up to 14 full clinic visits, including a pre-Screening visit, a Screening/start of Placebo Run-in visit, a second visit during Placebo Run-in, a clinic visit to initiate the ABPM procedure, a Randomization visit, 8 weekly visits during double-blind treatment, and an end-of-study visit scheduled 4 weeks after the last study treatment for final efficacy and safety assessments.
An automated oscillometric sphygmomanometer device was used to measure the subjects' systolic and diastolic blood pressure in office after approximately 5 minutes of rest in the seated position.
The primary endpoint is the change in office-measured (mean of last 2 of 5 unattended measurements using an automated oscillometric sphygmomanometer device after approximately 5 minutes of rest in the seated position) systolic blood pressure (SBP) from baseline to the end of Study Week 8.
Secondary endpoints of this study were: • (a) Change in 24-hour ambulatory blood pressure monitoring (ABPM) parameters (systolic and diastolic) from baseline to the end of Study Week 7. • (b) Change in office-measured SBP from baseline to the end of Study Weeks 1, 2, 3, 4, 5, 6, and 7. • (c) Change in office-measured diastolic blood pressure (DBP) from baseline to the end of Study Weeks 1, 2, 3, 4, 5, 6, 7, and 8. • (d) Proportion of subjects who achieve office-measured BP of ≤130/80 mm Hg by the end of Study Week 8.

[1] = 12.5 mg BID, Seated SBP Tertile High
[2] = 12.5 mg BID, Seated SBP Tertile Middle
[3] = 12.5 mg BID, Systolic Blood Pressure Tertile at Baseline High
[4] = 12.5 mg BID, Systolic Blood Pressure Tertile at Baseline Low
[5] = 12.5 mg BID, Systolic Blood Pressure Tertile at Baseline Middle
[6] = 12.5 mg BID, Thiazide Diuretic Use at Baseline No
[7] = 12.5 mg BID, Thiazide Diuretic Use at Baseline Yes

CC(=O)N[C@H]1CC[C@H](NC(=O)CN2CCN(c3nncc(-c4ccc(C)cc4)n3)CC2)CC1 [Compound A HBr]
Mean (SD) Change from Baseline at Week 8 in Automated Office-Measured Diastolic Blood Pressure (12.5 mg BID, Race Black or AA): 0.21 (7.03) mmHg
Mean (SD) Change from Baseline at Week 8 in Automated Office-Measured Systolic Blood Pressure (12.5 mg BID, Race Black or AA): −7.43 (20.17) mmHg
Mean (SD) Automated Office-Measured Diastolic Blood Pressure at Wk 8 (12.5 mg BID, Race Other): 72.92 (10.54) mmHg
Mean (SD) Automated Office-Measured Systolic Blood Pressure at Wk 8 (12.5 mg BID, Race Other): 128.50 (11.84) mmHg
Mean (SD) Change from Baseline at Week 8 in Automated Office-Measured Diastolic Blood Pressure (12.5 mg BID, Race Other): −9.38 (7.89) mmHg
Mean (SD) Change from Baseline at Week 8 in Automated Office-Measured Systolic Blood Pressure (12.5 mg BID, Race Other): −17.50 (15.80) mmHg
Mean (SD) Automated Office-Measured Diastolic Blood Pressure at Wk 8 [1]: 74.86 (11.87) mmHg
Mean (SD) Change from Baseline at Week 8 in Automated Office-Measured Diastolic Blood Pressure [1]: −6.93 (7.79) mmHg
Mean (SD) Automated Office-Measured Diastolic Blood Pressure at Wk 8 (12.5 mg BID, Seated SBP Tertile Low): 78.50 (9.88) mmHg
Mean (SD) Automated Office-Measured Diastolic Blood Pressure at Wk 8 [2]: 73.88 (9.48) mmHg
Mean (SD) Change from Baseline at Week 8 in Automated Office-Measured Diastolic Blood Pressure [2]: −6.69 (10.60) mmHg
Mean (SD) Automated Office-Measured Diastolic Blood Pressure at Wk 8 (12.5 mg BID, Sex Female): 74.07 (10.32) mmHg
Mean (SD) Automated Office-Measured Systolic Blood Pressure at Wk 8 (12.5 mg BID, Sex Female): 131.00 (14.17) mmHg
Mean (SD) Change from Baseline at Week 8 in Automated Office-Measured Diastolic Blood Pressure (12.5 mg BID, Sex Female): −5.25 (9.78) mmHg
Mean (SD) Change from Baseline at Week 8 in Automated Office-Measured Systolic Blood Pressure (12.5 mg BID, Sex Female): −12.46 (18.69) mmHg
Mean (SD) Automated Office-Measured Systolic Blood Pressure at Wk 8 [3]: 131.86 (14.81) mmHg
Mean (SD) Change from Baseline at Week 8 in Automated Office-Measured Systolic Blood Pressure [3]: −24.93 (18.46) mmHg
Mean (SD) Automated Office-Measured Systolic Blood Pressure at Wk 8 [4]: 132.25 (10.34) mmHg
Mean (SD) Change from Baseline at Week 8 in Automated Office-Measured Systolic Blood Pressure [4]: −0.75 (5.48) mmHg
Mean (SD) Automated Office-Measured Systolic Blood Pressure at Wk 8 [5]: 131.75 (14.00) mmHg
Mean (SD) Change from Baseline at Week 8 in Automated Office-Measured Systolic Blood Pressure [5]: −10.56 (16.34) mmHg
Automated Office-Measured Diastolic Blood Pressure, Week 8, Mean (SD) [6]: 79.57 (10.75) mmHg
Mean (SD) Automated Office-Measured Systolic Blood Pressure at Wk 8 [6]: 139.29 (13.28) mmHg
Mean (SD) Change from Baseline at Week 8 in Automated Office-Measured Diastolic Blood Pressure [6]: −3.29 (8.80) mmHg
Mean (SD) Change from Baseline at Week 8 in Automated Office-Measured Systolic Blood Pressure [6]: −4.43 (15.93) mmHg
Automated Office-Measured Diastolic Blood Pressure, Week 8, Mean (SD) [7]: 72.67 (9.15) mmHg
Mean (SD) Automated Office-Measured Systolic Blood Pressure at Wk 8 [7]: 127.58 (11.07) mmHg
Mean (SD) Change from Baseline at Week 8 in Automated Office-Measured Diastolic Blood Pressure [7]: −7.33 (8.79) mmHg
Mean (SD) Change from Baseline at Week 8 in Automated Office-Measured Systolic Blood Pressure [7]: −19.25 (16.90) mmHg
Mean (SD) Automated Office-Measured Systolic Blood Pressure at Wk 8 (12.5 mg QD, ACEi/ARB No): 138.25 (20.45) mmHg
Mean (SD) Change from Baseline at Week 8 in Automated Office-Measured Systolic Blood Pressure (12.5 mg QD, ACEi/ARB No): −8.50 (31.61) mmHg
Mean (SD) Automated Office-Measured Systolic Blood Pressure at Wk 8 (12.5 mg QD, ACEi/ARB Yes): 141.50 (23.12) mmHg
Mean (SD) Change from Baseline at Week 8 in Automated Office-Measured Systolic Blood Pressure (12.5 mg QD, ACEi/ARB Yes): −6.39 (16.84) mmHg
Mean (SD) Automated Office-Measured Diastolic Blood Pressure at Wk 8 (12.5 mg QD, ACEi/ARBs No): 73.25 (13.50) mmHg
Mean (SD) Change from Baseline at Week 8 in Automated Office-Measured Diastolic Blood Pressure (12.5 mg QD, ACEi/ARBs No): −5.50 (11.85) mmHg
Mean (SD) Automated Office-Measured Diastolic Blood Pressure at Wk 8 (12.5 mg QD, ACEi/ARBs Yes): 83.79 (17.89) mmHg
Mean (SD) Change from Baseline at Week 8 in Automated Office-Measured Diastolic Blood Pressure (12.5 mg QD, ACEi/ARBs Yes): −0.71 (13.94) mmHg
Mean (SD) Automated Office-Measured Diastolic Blood Pressure at Wk 8 (12.5 mg QD, AHTs 2): 80.80 (18.35) mmHg
Mean (SD) Automated Office-Measured Systolic Blood Pressure at Wk 8 (12.5 mg QD, AHTs 2): 142.80 (25.41) mmHg
Mean (SD) Change from Baseline at Week 8 in Automated Office-Measured Diastolic Blood Pressure (12.5 mg QD, AHTs 2): −4.60 (10.04) mmHg
Mean (SD) Change from Baseline at Week 8 in Automated Office-Measured Systolic Blood Pressure (12.5 mg QD, AHTs 2): −9.70 (21.49) mmHg
Mean (SD) Automated Office-Measured Diastolic Blood Pressure at Wk 8 (12.5 mg QD, AHTs ≥3): 82.25 (16.96) mmHg
Mean (SD) Automated Office-Measured Systolic Blood Pressure at Wk 8 (12.5 mg QD, AHTs ≥3): 138.25 (18.26) mmHg
Mean (SD) Change from Baseline at Week 8 in Automated Office-Measured Diastolic Blood Pressure (12.5 mg QD, AHTs ≥3): 1.75 (16.61) mmHg
Mean (SD) Change from Baseline at Week 8 in Automated Office-Measured Systolic Blood Pressure (12.5 mg QD, AHTs ≥3): −3.31 (18.37) mmHg
Mean (SD) Automated Office-Measured Diastolic Blood Pressure at Wk 8 (12.5 mg QD, Age 65-79 yr): 77.25 (5.52) mmHg
